Data as given in ChEMBL document CHEMBL4680341, “Substituted diaryl ether compounds as retinoic acid-related orphan Receptor-γt (RORγt) agonists” (Bioorg Med Chem Lett, 2021).

What was measured:
[1] = in vitro; settings: human, liver microsomes
Description: Stability in human liver microsomes assessed as parent compound remaining at 3 uM after 10 mins by mass spectrometric method

[2] = in vitro; settings: mouse, liver microsomes
Description: Stability in mouse liver microsomes assessed as parent compound remaining at 3 uM after 10 mins by mass spectrometric method

[3] = in vitro; settings: rat, liver microsomes
Description: Stability in rat liver microsomes assessed as parent compound remaining at 3 uM after 10 mins by mass spectrometric method

With `CC(C)c1cc(F)cc(Oc2c(Cl)cc(NC(=O)Cc3cccnc3)cc2Cl)c1` as the compound, how does the remaining at 10 min, 3 µM [1] read?
The remaining at 10 min, 3 µM was 79%.

What about the remaining at 10 min, 3 µM [2] of the same compound?
The remaining at 10 min, 3 µM was 81%.

What about the remaining at 10 min, 3 µM [3] of the same compound?
Its remaining at 10 min, 3 µM is 78%.
